The values that follow come from patent US5416191A, “Bradykinin antagonists” (Cortech, Inc., priority 1993, dated 1995).

Assay [1] concerns the target T1, bradykinin receptor of the B2 class (guinea-pig ileum) (Cavia porcellus, UniProt O70526).
T1 sequence (O70526 1-372): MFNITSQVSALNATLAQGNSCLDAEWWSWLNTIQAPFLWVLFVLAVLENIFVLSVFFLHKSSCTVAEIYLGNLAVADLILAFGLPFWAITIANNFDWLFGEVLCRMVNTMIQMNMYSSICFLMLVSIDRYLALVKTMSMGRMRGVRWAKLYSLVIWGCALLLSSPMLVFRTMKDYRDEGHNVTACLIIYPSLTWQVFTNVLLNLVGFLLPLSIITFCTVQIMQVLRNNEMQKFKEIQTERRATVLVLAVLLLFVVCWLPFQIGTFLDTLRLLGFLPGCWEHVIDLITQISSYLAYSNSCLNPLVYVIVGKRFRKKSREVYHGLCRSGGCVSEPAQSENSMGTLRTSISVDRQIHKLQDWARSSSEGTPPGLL

In assay [2] the target is T2, bradykinin receptor of the B2 class (rat uterus) (Rattus norvegicus, UniProt P25023).
T2 construct: concentration effect curves to bradykinin (BK) on rat uterus in vitro; from tissue; host or cells: rat uterus
T2 sequence (P25023 1-396): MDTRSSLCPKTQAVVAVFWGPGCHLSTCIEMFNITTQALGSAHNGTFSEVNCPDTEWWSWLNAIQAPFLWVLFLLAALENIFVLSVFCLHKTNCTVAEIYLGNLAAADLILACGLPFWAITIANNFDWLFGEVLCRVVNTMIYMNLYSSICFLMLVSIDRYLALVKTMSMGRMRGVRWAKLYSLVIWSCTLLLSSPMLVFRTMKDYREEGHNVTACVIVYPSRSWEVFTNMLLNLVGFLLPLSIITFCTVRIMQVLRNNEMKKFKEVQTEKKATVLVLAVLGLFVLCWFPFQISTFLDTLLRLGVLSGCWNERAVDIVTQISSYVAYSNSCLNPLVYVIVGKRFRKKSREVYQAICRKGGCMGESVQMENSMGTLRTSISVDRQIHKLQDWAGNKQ
The assay is described as follows: Rat uterus (RU) in vitro, antagonism of bradykinin. The protocol:
Thus in vitro studies were performed on standard assay systems, namely, guinea-pig ileum (GPI), rat uterus (RU) and rabbit jugular vein (RJV). […] The PA2 can be defined as the negative logarithm of the molar concentration of the antagonist in the presence of which the potency of the agonist is reduced two-fold, i.e. twice the amount of agonist is required to produce a given response in the presence of, than in the absence of, the antagonist. A high potency of antagonism is indicated by a high PA2 value, i.e., a low concentration of antagonist is effective.
The percentage recovery (% Rec) was also determined for compounds with respect to each assay.
With respect to duration of activity, it is noted that after exposure to the highest concentration of antagonist, each tissue was washed extensively and then assessed for recovery from the antagonist effect.
Potency in the rat uterus assay was assessed as described above and PA2 values determined.

Setting [3] is: Table C, rat uterus, P.A. = Partial Agonist, read-out: pA2 MONOMER (converted).

Structures are written as SMILES. Where two headings read alike, the source gives them in different places. Square brackets hold non-standard residues; d marks the D form. Peptide text beside a SMILES is read from it. * marks the point of attachment. Hyp = O=C(O)[C@@H]1C[C@@H](O)CN1; X8 = O=C1CC(*)C(=O)N1

For the compound `CC(C)C[C@H](NC(=O)[C@@H](Cc1ccccc1)NC(=O)[C@H](CSSC[C@H](NC(=O)[C@H](Cc1ccccc1)NC(=O)CNC(=O)[C@@H]1C[C@@H](O)CN1C(=O)[C@@H]1CCCN1C(=O)[C@H](CCCNC(=N)N)NC(=O)[C@H](N)CCCNC(=N)N)C(=O)N[C@H](Cc1ccccc1)C(=O)N[C@@H](CC(C)C)C(=O)N[C@@H](CCCNC(=N)N)C(=O)O)NC(=O)[C@H](Cc1ccccc1)NC(=O)CNC(=O)[C@@H]1C[C@@H](O)CN1C(=O)[C@@H]1CCCN1C(=O)[C@H](CCCNC(=N)N)NC(=O)[C@H](N)CCCNC(=N)N)C(=O)N[C@@H](CCCNC(=N)N)C(=O)O` [CP-0138] (HELM PEPTIDE1{[dR].R.P.[Hyp].G.F.C.[dF].L.R}|PEPTIDE2{[dR].R.P.[Hyp].G.F.C.[dF].L.R}$PEPTIDE1,PEPTIDE2,7:R3-7:R3$$$V2.0), the Kb in assay [1] is approximately 631 nM; in assay [2] (Table E, read-out: RAT UTERUS pA2 (converted)), 39.8 nM. The “RAT UTERUS % RECOVERED” value in assay [2] (Table E) is 100%.
Regarding `CC(C)C[C@H](NC(=O)[C@@H](Cc1ccccc1)NC(=O)[C@H](CSC1CC(=O)NC1=O)NC(=O)[C@H](Cc1ccccc1)NC(=O)CNC(=O)[C@@H]1C[C@@H](O)CN1C(=O)[C@@H]1CCCN1C(=O)[C@H](CCCNC(=N)N)NC(=O)[C@H](N)CCCNC(=N)N)C(=O)N[C@@H](CCCNC(=N)N)C(=O)O` (stereo partly shown) [CP-0139] (H-[dR]RP[Hyp]GFC(X8)[dF]LR-OH), in assay [1], the Kb is approximately 79.4 nM.
Turning to `CC(C)C[C@H](NC(=O)[C@@H](Cc1ccccc1)NC(=O)[C@H](CO)NC(=O)[C@H](Cc1ccccc1)NC(=O)CNC(=O)[C@@H]1C[C@@H](O)CN1C(=O)[C@@H]1CCCN1C(=O)[C@H](CCCNC(=N)N)NC(=O)[C@@H](N)CS)C(=O)N[C@@H](CCCNC(=N)N)C(=O)O` [CP-0140] (HELM PEPTIDE1{C.R.P.[Hyp].G.F.S.[dF].L.R}$$$$V2.0), the values for the Kb in assay [1] and in assay [2] (setting [3]) were approximately 316 nM and 100 nM, respectively. For the same compound, in assay [2] (Table C, rat uterus), the “% REC MONOMER” value was 50%.
On to `CC(C)C[C@H](NC(=O)[C@@H](Cc1ccccc1)NC(=O)[C@H](CO)NC(=O)[C@H](Cc1ccccc1)NC(=O)CNC(=O)[C@@H]1C[C@@H](O)CN1C(=O)[C@@H]1CCCN1C(=O)[C@H](CS)NC(=O)[C@H](N)CCCNC(=N)N)C(=O)N[C@@H](CCCNC(=N)N)C(=O)O` [CP-0141] (HELM PEPTIDE1{[dR].C.P.[Hyp].G.F.S.[dF].L.R}$$$$V2.0), for which the Kb in assay [1] was approximately 1000 nM.
As to `CC(C)C[C@H](NC(=O)[C@@H](Cc1ccccc1)NC(=O)[C@H](CO)NC(=O)[C@H](Cc1ccccc1)NC(=O)CNC(=O)[C@@H]1C[C@@H](O)CN1C(=O)[C@H](CS)NC(=O)[C@H](CCCNC(=N)N)NC(=O)[C@H](N)CCCNC(=N)N)C(=O)N[C@@H](CCCNC(=N)N)C(=O)O` [CP-0142] (HELM PEPTIDE1{[dR].R.C.[Hyp].G.F.S.[dF].L.R}$$$$V2.0), the results for the Kb in assay [1] and in assay [2] (setting [3]) were approximately 2000 nM and 398 nM, respectively. Besides, the “% REC MONOMER” value in assay [2] (Table C, rat uterus) is given as 80%.
In assay [1], `CC(C)C[C@H](NC(=O)[C@@H](Cc1ccccc1)NC(=O)[C@H](CO)NC(=O)[C@H](Cc1ccccc1)NC(=O)CNC(=O)[C@H](CS)NC(=O)[C@@H]1CCCN1C(=O)[C@H](CCCNC(=N)N)NC(=O)[C@H](N)CCCNC(=N)N)C(=O)N[C@@H](CCCNC(=N)N)C(=O)O` [CP-0143] (HELM PEPTIDE1{[dR].R.P.C.G.F.S.[dF].L.R}$$$$V2.0) had a Kb of approximately 316 nM. Moreover, the “pA2 MONOMER” value in assay [2] (Table C, rat uterus, P.A. = Partial Agonist) was “P.A”.
For `CC(C)C[C@H](NC(=O)[C@@H](Cc1ccccc1)NC(=O)[C@H](CO)NC(=O)[C@H](CS)NC(=O)CNC(=O)[C@@H]1C[C@@H](O)CN1C(=O)[C@@H]1CCCN1C(=O)[C@H](CCCNC(=N)N)NC(=O)[C@H](N)CCCNC(=N)N)C(=O)N[C@@H](CCCNC(=N)N)C(=O)O` [CP-0144] (HELM PEPTIDE1{[dR].R.P.[Hyp].G.C.S.[dF].L.R}$$$$V2.0), the Kb in assay [1] is approximately 501 nM; in assay [2] (setting [3]), 63.1 nM. Moreover, the “% REC MONOMER” value in assay [2] (Table C, rat uterus) is given as 95%.
